Structures are written as SMILES. A value given as a limit tells only on which side of the number the result lay.

From ChEMBL document CHEMBL5728812, “Inhibitors of Plasma Kallikrein and uses thereof” (2021) come the findings set out here.

The target of the assay is Plasma kallikrein (Homo sapiens, UniProt P03952). In words: Inhibitory Activity Assay: Plasma Kallikrein: The example compounds were evaluated for inhibition of the human activated kallikrein enzyme in two formats of an assay employing a fluorogenic peptide substrate. In one assay format, the concentrations of reagents were as follows: 20 mM Tris pH 7.5, 1 mM EDTA, 150 mM sodium chloride, 0.1% PEG-400, 0.1% Triton X-100, 500 pM activated kallikrein enzyme, 300 uM Pro-Phe-Arg-7-amido-4-methylcoumarin substrate. Prior to reaction initiation with substrate, enzyme and inhibitors were preincubated for 30 min at room temperature. After initiation with substrate, reactions were incubated for 10 min at room temperature and fluorescence emission at 460 nm from 380 nm excitation measured with a microplate reader. In another assay format, the concentrations of reagents were as follows: 20 mM Tris pH 7.5, 1 mM EDTA, 150 mM sodium chloride, 0.1% PEG-400, 0.1% Triton X-100, 5 pM activated kallikrein enzyme, 300 uM Pro-Phe-Arg-7-amido-4-methylcoumarin substrate. Prior to reaction initiation with substrate, enzyme and inhibitors were preincubated for 30 min at room temperature. After initiation with substrate, reactions were incubated for 18 hr at room temperature and fluorescence emission at 460 nm from 380 nm excitation measured with a microplate reader.
Plasma kallikrein, sequence (P03952 20-390 limits assumed): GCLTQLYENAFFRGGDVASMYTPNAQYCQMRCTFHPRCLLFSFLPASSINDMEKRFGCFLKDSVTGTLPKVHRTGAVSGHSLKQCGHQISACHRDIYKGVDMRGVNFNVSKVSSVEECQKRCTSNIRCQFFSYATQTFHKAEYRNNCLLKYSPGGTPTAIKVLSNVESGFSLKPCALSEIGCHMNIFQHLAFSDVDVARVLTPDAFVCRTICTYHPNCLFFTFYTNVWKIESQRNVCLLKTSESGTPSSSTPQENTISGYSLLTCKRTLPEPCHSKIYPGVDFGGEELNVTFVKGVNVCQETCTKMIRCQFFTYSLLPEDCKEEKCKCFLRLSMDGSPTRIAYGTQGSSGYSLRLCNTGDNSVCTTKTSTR
Plasma kallikrein, sequence (P03952 391-638 limits assumed): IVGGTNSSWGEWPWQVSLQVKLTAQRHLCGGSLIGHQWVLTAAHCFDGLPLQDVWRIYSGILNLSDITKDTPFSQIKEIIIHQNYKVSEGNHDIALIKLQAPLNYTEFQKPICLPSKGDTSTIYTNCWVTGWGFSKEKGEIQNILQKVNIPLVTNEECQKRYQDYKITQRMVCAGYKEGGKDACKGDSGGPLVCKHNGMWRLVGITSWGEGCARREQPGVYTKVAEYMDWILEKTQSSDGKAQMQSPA

As a reminder, the EC50 is the concentration giving half of the maximal effect. `CNC(=O)[C@H](CCCCNC(=N)N)NC(=O)c1csc([C@@H]2C[C@@H](N)CN2C(=O)c2ccc3cc(Cl)ccc3n2)n1`: the EC50 was less than 100 nM.
